Source: BindingDB's records for doi:10.1111/cbdd.12489 (Zhejiang University, 2015)

Biological target: RAC-alpha serine/threonine-protein kinase (Homo sapiens, UniProt P31749)
Assay: Akt1 Inhibitory Activity Assay
Settings: pH 7.5; 25 °C
Description: In vitro kinase assays were carried out using HTScan PKB/Akt1 Kinase Assay kit (Cell Signaling Technology). […] Then, PKB/Akt1 kinase activity was analyzed according to the manufacturer's instructions.

RAC-alpha serine/threonine-protein kinase, sequence (P31749 whole entry): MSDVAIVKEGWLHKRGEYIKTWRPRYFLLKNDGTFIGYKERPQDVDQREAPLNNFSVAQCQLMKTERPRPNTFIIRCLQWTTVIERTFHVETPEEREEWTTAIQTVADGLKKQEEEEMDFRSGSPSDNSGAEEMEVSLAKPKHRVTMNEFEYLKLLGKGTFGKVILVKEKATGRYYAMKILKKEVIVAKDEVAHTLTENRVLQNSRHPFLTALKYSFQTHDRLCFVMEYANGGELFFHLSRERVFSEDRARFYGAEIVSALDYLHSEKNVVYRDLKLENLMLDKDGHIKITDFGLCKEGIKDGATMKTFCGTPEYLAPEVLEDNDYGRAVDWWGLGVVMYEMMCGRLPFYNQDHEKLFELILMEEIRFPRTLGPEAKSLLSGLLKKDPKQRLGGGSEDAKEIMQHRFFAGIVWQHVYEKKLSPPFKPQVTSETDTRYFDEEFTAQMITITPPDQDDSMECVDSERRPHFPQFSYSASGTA

IC50 | Compound
6.2 µM | O=c1c(O)c(-c2ccc(O)c(O)c2)oc2cc(O)c(CN3CCOCC3)c(O)c12 [2-(3,4-Dihydroxyphenyl)-3,5,7-trihydroxy-6-(morpholinomethyl)-4H-chromen-4-one (3a)]
5.5 µM | CN(Cc1ccccc1)Cc1c(O)cc2oc(-c3ccc(O)c(O)c3)c(O)c(=O)c2c1O [6-((Benzyl(methyl)amino)methyl)-2-(3,4-dihydroxyphenyl)-3,5,7-trihydroxy-4H-chromen-4-one (3c)]
